Reference: article PMC9742639, “Inhibition of glycogen synthase kinase-3-beta (GSK3β) blocks nucleocapsid phosphorylation and SARS-CoV-2 replication” (Molecular Biomedicine, 2022)
Where “and” joins values, the source holds several entries; their conditions need not be identical. Equal entries are not always repeated. Where two headings read alike, the source gives them in different places. Square brackets hold non-standard residues; d marks the D form. Primed or numbered codes have the meaning given here. Ends that are not written are not given here. pS′ = not defined here; pT′ = not defined here

Experiments:
Huh-7.5.1 cells = assay: Cell loss / toxicity to Huh-7.5.1 host cells (nuclei count); conditions: 10 µM, infected Huh-7.5.1 cells
Protocol: (§1) Total number of cells (via nuclei staining) and number of virus-infected cells (via dsRNA and nucleocapsid staining) was measured using the CellInsight CX5 High Content Screening platform (Thermo Fisher), as previously described [24]. Briefly, cell nuclei are stained with Hoechst (33342) for detection at the 350/461 nm wavelength and a region of interest (ROI) marks each cell, which is verified using cell membrane imaging in the bright field. The ROI includes the areas where dsRNA (485/521 nm wavelength) and SARS-CoV-2 nucleocapsid (533/588 nm wavelength) are localized. The software (HCS Studio Cell Analysis Software, version 4.0) tallies ROIs where dsRNA and nucleocapsid are located within stained nuclei by compiling pixel area and intensity measurements. The fluorescence emitted by the dsRNA and nucleocapsid are then quantified for each well. The total intensity of each well indicates the viral load and is normalized against non-infected cells and untreated infected cells. Cell loss (from cytotoxicity or poor adherence) was quantified using the same stain (Hoechst 33342) and was used to normalize the changes in viral load resulting from a decrease in cell numbers. Based on average variation in control treatments between experiments, significant cell loss was considered a loss of > 20% cells relative to the non-infected control.

GSK3β = molecular target: T1, GSK3β (Homo sapiens, UniProt P49841); assay: In vitro inhibition of GSK3β, ADP-Glo Kinase Assay; format: biochemical; conditions: read-out: IC50, GSK3β enzymatic activity
T1 construct: GST; purchased SignalChem G09-10G
Protocol: All protein kinase reactions were performed with the ADP-Glo Kinase Assay from ProMega (Madison, WI, USA). Substrate peptides were assayed at a final concentration of ~ 250 μM with 250 μM ATP for 30 min at 30 °C in a final volume of 25 μL. Recombinant nucleocapsid was similarly assayed at a final concentration of 13.4 ng/μL. The concentrations of recombinant protein kinases used were ~ 2 ng/μL.
Supplemental Figure S3: in vitro inhibition of GSK3. ADP-Glo^TM Kinase Assay normalized to the negative control (100% kinase activity), dose-response was analyzed by non-linear regression.

HCoV-229E [1] = assay: High-content screen / dose-response of HCoV-229E-infected Huh-7.5.1 cells (dsRNA); format: cell-based
in vitro = conditions: human
Protocol: as §1

HCoV-229E [2] = assay: Chou-Talalay synergy with Remdesivir in HCoV-229E-infected cells; format: cell-based; conditions: Chou-Talalay method, CI < 1 synergistic
Protocol: Statistical analyses were performed and figures were prepared using GraphPad Prism 9™ (GraphPad Software, Inc.). Imbedded blots and fluorescent images were generated using GIMP^©. Chou-Talalay synergy analysis was performed using CompuSyn (ComboSyn Inc.). CI values < 1 are defined as synergistic, CI = 1 as additive, and CI > 1 as antagonistic.
Supplemental Figure S4: Synergy experiment. Dose-response combination of Remdesivir (Rem) and T-1686568 (T2) using CompuSyn V1.0. Representative experiment of two independent experiments.

SARS-CoV-2 [3] = assay: SARS-CoV-2 infection of primary donor-derived colon organoids (intracellular N protein); format: cell-based; conditions: donor intestinal organoids monolayer, 72 hrs post-infection
SARS-CoV-2 [4] = assay: High-content screen / dose-response of SARS-CoV-2-infected Huh-7.5.1 cells (dsRNA, nucleocapsid); format: cell-based; conditions: for ED50, activity against SARS-CoV-2 / inhibition at 10 µM: Huh-7.5.1 cells; for ED50, activity against SARS-CoV-2: intracellular N protein; for inhibition at 10 µM: Severe acute respiratory syndrome coronavirus 2
SARS-CoV-2 [5] = assay: Viral titer from 48-h SARS-CoV-2-infected Calu-3 cells; format: cell-based; conditions: 48 h after infection and treatment, 100 μM
SARS-CoV-2 [6] = format: cell-based
PKACa = PKACa (Homo sapiens, UniProt P17612); assay: In vitro phosphorylation of nucleocapsid peptides, ADP-Glo; format: biochemical; conditions: kinase with ATP alone, no peptide = 100; peptide ~250 μM, ATP 250 μM, 30 min
CK1d = molecular target: T2, CK1d (Homo sapiens, UniProt P48730); assay: as above; format: biochemical; conditions: kinase with ATP alone, no peptide = 100; peptide ~250 μM, ATP 250 μM, 30 min
T2 construct: GST; purchased SignalChem C65-10G

GSK3b = molecular target: T3, GSK3b (Homo sapiens, UniProt P49841); assay: as above; format: biochemical; conditions: for Phosphorylation by GSK3b (Table 2): Mean ± Standard deviation, n = 3, no peptide substrate 1995 ± 133; for Relative phosphorylation by GSK3b: kinase with ATP alone, no peptide = 100, peptide ~250 μM, ATP 250 μM, 30 min
T3 construct: GST; purchased SignalChem G09-10G

CDK2 + Cyclin A2 = CDK2 + Cyclin A2 (Homo sapiens, UniProt P24941); assay: as above; format: biochemical; conditions: kinase with ATP alone, no peptide = 100; peptide ~250 μM, ATP 250 μM, 30 min
ERK1 = molecular target: T4, ERK1 (Homo sapiens, UniProt P27361); assay: as above; format: biochemical; conditions: kinase with ATP alone, no peptide = 100; peptide ~250 μM, ATP 250 μM, 30 min
T4 construct: GST; purchased SignalChem M29-10G

PKCa = molecular target: T5, PKCa (Homo sapiens, UniProt P17252); assay: as above; format: biochemical; conditions: for Phosphorylation by PKCa (Table 2): Mean ± Standard deviation, n = 3, no peptide substrate 1282 ± 51; for Relative phosphorylation by PKCa: kinase with ATP alone, no peptide = 100, peptide ~250 μM, ATP 250 μM, 30 min
T5 construct: GST; purchased SignalChem P61-18G

CK2a1 = molecular target: T6, CK2a1 (Homo sapiens, UniProt P68400); assay: as above; format: biochemical; conditions: kinase with ATP alone, no peptide = 100; peptide ~250 μM, ATP 250 μM, 30 min
T6 construct: GST; purchased SignalChem C70-10G

CK1a1 = molecular target: T7, CK1a1 (Homo sapiens, UniProt P48729); assay: as above; format: biochemical; conditions: kinase with ATP alone, no peptide = 100; peptide ~250 μM, ATP 250 μM, 30 min
T7 construct: GST; purchased SignalChem C64-10G

CK1g1 = molecular target: T8, CK1g1 (Homo sapiens, UniProt Q9HCP0); assay: as above; format: biochemical; conditions: kinase with ATP alone, no peptide = 100; peptide ~250 μM, ATP 250 μM, 30 min
T8 construct: GST; purchased SignalChem C68-11G

[7] = average of screens 1 and 2, read-out: Average SARS-CoV-2 Nucleocapsid inhibition
[8] = screen 1, read-out: SARS-CoV-2 inhibition (% Nucleocapsid) 1
[9] = screen 2, read-out: SARS-CoV-2 inhibition (% Nucleocapsid) 2
[10] = read-out: SARS-CoV-2 inhibition (% dsRNA)

T3 sequence (P49841 whole entry): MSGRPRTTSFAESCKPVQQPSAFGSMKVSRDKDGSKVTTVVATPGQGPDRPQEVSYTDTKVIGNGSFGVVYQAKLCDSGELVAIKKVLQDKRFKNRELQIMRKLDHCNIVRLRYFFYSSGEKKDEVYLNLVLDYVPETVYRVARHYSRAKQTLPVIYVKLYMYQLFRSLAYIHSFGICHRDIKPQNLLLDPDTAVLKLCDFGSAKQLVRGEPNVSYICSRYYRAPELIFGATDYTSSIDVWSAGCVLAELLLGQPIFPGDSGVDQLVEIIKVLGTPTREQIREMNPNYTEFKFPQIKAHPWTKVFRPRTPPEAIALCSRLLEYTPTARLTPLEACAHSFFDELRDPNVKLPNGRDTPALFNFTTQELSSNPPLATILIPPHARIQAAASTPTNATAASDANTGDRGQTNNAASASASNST
T4 sequence (P27361 whole entry): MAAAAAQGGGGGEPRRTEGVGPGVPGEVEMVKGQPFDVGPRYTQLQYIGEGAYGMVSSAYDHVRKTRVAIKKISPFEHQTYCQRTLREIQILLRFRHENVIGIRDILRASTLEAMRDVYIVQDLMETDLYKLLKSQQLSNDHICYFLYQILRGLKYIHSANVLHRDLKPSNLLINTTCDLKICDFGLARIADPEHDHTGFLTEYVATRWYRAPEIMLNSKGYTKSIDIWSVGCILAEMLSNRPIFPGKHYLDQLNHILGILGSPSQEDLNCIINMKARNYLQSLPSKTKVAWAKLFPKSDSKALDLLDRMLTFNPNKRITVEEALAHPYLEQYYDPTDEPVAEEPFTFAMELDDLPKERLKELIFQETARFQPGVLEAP
T2 sequence (P48730 whole entry): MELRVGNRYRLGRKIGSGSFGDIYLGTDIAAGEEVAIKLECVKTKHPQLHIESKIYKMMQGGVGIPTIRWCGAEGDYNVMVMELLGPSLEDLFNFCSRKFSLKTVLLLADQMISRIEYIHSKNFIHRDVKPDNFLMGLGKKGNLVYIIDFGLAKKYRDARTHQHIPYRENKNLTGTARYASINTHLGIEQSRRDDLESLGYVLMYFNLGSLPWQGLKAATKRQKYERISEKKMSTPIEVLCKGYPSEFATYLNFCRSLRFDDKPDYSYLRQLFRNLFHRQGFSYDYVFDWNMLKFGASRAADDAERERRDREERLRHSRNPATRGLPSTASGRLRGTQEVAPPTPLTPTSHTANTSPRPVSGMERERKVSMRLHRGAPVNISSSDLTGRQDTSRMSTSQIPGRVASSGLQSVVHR
T6 sequence (P68400 whole entry): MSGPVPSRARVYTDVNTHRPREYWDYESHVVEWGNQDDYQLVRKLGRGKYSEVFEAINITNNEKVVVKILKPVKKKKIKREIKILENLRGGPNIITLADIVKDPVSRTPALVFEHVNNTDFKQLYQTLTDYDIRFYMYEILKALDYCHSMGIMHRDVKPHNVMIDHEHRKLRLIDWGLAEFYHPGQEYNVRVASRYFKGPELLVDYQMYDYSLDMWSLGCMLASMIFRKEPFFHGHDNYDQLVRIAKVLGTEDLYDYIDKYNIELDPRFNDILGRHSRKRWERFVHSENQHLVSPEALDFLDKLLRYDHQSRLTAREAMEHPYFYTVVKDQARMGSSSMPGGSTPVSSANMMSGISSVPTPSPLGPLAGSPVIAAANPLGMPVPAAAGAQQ
T8 sequence (Q9HCP0 whole entry): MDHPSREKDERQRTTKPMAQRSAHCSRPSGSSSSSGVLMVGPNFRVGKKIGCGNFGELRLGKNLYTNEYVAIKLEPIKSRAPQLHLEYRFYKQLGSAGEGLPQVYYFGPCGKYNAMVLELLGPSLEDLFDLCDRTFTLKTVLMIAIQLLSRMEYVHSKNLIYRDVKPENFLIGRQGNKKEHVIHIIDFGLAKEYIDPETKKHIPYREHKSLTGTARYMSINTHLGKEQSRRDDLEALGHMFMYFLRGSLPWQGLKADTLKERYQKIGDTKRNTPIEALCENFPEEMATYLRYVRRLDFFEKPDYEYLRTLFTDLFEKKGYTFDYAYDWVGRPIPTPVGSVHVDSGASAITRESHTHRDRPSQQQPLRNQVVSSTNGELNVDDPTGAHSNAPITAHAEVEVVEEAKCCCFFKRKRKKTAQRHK
T7 sequence (P48729 whole entry): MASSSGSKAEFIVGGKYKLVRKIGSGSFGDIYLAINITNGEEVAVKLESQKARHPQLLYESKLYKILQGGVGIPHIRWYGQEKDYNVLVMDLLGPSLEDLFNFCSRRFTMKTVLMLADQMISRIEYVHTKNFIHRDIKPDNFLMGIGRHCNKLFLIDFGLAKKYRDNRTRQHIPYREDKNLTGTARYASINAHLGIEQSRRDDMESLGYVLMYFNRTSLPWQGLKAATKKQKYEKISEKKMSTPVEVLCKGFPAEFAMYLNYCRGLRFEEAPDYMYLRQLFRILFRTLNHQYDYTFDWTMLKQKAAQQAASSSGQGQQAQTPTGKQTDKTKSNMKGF
T1 sequence (P49841 whole entry): as the sequence (P49841 whole entry) above

| Molecule | Average cell loss (%) (Huh-7.5.1 cells) | ED50, activity against HCoV-229E (HCoV-229E [1]) | CC50 (in vitro) [µM] | ED50, activity against SARS-CoV-2 (SARS-CoV-2 [4]) | inhibition at 10 µM (SARS-CoV-2 [4]; [7]) [%] | inhibition at 10 µM (SARS-CoV-2 [4]; [8]) [%] | inhibition at 10 µM (SARS-CoV-2 [4]; [9]) [%] | inhibition at 10 µM (SARS-CoV-2 [4]; [10]) [%] | Relative phosphorylation by PKACa (PKACa) | Phosphorylation by GSK3b (Table 2) (GSK3b) | Relative phosphorylation by GSK3b (GSK3b) | Phosphorylation by PKCa (Table 2) (PKCa) | Relative phosphorylation by PKCa (PKCa) | also measured |
| --- | --- | --- | --- | --- | --- | --- | --- | --- | --- | --- | --- | --- | --- | --- |
| CSc1ccc(-n2cnc3ccc(-c4nnc(CCc5cccc(C#N)c5)o4)cc32)cc1 [P-0717632] | 24.4 | ~ 3 μM | > 100 | 2.7 µM | 79.3 | 75.2 | 83.3 | 68.2 |  |  |  |  |  | IC50 (GSK3β): 0.102 µM; average Combination Index (CI) (HCoV-229E [2]): 0.7; effect on intracellular N protein levels (SARS-CoV-2 [3]): greatly decrease intracellular N protein levels; ED50, activity against SARS-CoV-2 (SARS-CoV-2 [4]; listed as T-1686568): ~ 3 μM; ED80 (SARS-CoV-2 [4]; infected Huh-7.5.1 cells): 10 µM; reduction of viral titres (SARS-CoV-2 [5]): 2 log; N protein in remaining infected cells (SARS-CoV-2 [6]): accumulated; S protein expression (SARS-CoV-2 [6]): reduced |
| C[S+]([O-])c1ccc(-c2coc3ccc(-c4nnc(SCc5cccc(F)c5)o4)cc23)cc1 (stereo not shown) [P-7657632] | 25.4 | ~ 3 μM | 39 | ~ 3 μM and 2.9 μM | 93.1 | 100 | 86.2 | 100 |  |  |  |  |  |  |
| SSRSRNSSRNS(pT)PG (SSRSRNSSRNS[pT′]PG) [SCV2-N [187-200] - pT198, synthetic peptide modeled after SARS-CoV-2 nucleocapsid phosphorylation sites, pre-phosphorylated at T198] |  |  |  |  |  |  |  |  | 157 | 23,031 ± 486 | 1042 | 7032 ± 319 | 553 | Relative phosphorylation by CK1d (CK1d): 152; Relative phosphorylation by CDK2 + Cyclin A2 (CDK2 + Cyclin A2): 101; Relative phosphorylation by ERK1 (ERK1): 100; Relative phosphorylation by CK2a1 (CK2a1): 102; Relative phosphorylation by CK1a1 (CK1a1): 250 |
| RGGSQASSRSS(pS)RS (RGGSQASSRSS[pS′]RS) [SCV2-N [177-190] - pS188, synthetic peptide modeled after SARS-CoV-2 nucleocapsid phosphorylation sites, pre-phosphorylated at S188] |  |  |  |  |  |  |  |  | 128 | 24,585 ± 645 | 1209 | 3861 ± 71 | 389 |  |
| SQASSRSSSR(pS)RNS (SQASSRSSSR[pS′]RNS) [SCV2-N [180-193] - pS190, synthetic peptide modeled after SARS-CoV-2 nucleocapsid phosphorylation sites, pre-phosphorylated at S190] |  |  |  |  |  |  |  |  | 312 | 2957 ± 3 | 111 | 4161 ± 66 | 418 | Relative phosphorylation by CK2a1 (CK2a1): 100 |
| CSc1ccc(-c2coc3ccc(-c4nnc(N)o4)cc23)cc1Cl [P-9071942] | 29.9 | ~ 3 μM | 27 | ~ 3 μM and 3.3 μM | 94.5 | 100 | 89.1 | 100 |  |  |  |  |  |  |
| RNSTPGSSRGT(pS)PAR (RNSTPGSSRGT[pS′]PAR) [SCV2-N [195-209] - pS206, synthetic peptide modeled after SARS-CoV-2 nucleocapsid phosphorylation sites, pre-phosphorylated at S206] |  |  |  |  |  |  |  |  | 205 | 24,082 ± 381 | 1068 | 1531 ± 47 |  | Relative phosphorylation by CK1d (CK1d): 105; Relative phosphorylation by CDK2 + Cyclin A2 (CDK2 + Cyclin A2): 100; Relative phosphorylation by ERK1 (ERK1): 100; Relative phosphorylation by CK1g1 (CK1g1): 105 |
